Here are results for ten compounds from ChEMBL document CHEMBL1201862, “PubChem BioAssay data set” (2004).

Among the test systems are OVCAR-8; MCF7; CAKI-1; SK-MEL-2; ACHN; NCI/ADR-RES; MDA-MB-435; OVCAR-4; MOLT-4; SR; HCC 2998; UACC-257; COLO 205; SK-MEL-5; LOX IMVI; 786-0; RPMI-8226; OVCAR-5; EKVX; UO-31.
Common to all, as to experiment: DTP human tumour cell line panel, 48 h

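Where inhibition never reached the appropriate level, the endpoint shown equals the highest concentration tested. Otherwise, values were interpolated linearly from a five-concentration, 48-hour dose response in 96-well plates. GI50 = concentration required for 50% inhibition of growth.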 Active and inactive are the calls of the source. No stated cut-off is given here; in the data, active = GI50 up to about 1.1 µM and inactive = higher.

A word on the GI50: it is the concentration that inhibits growth by half.

Turning to `Cc1ccc(-n2nnc3c(NNc4ccccc4)n[nH]c(=O)c32)cc1`, the GI50 with OVCAR-8 is 49.8 µM (inactive); in the assay with MCF7, 35.3 µM (inactive); in the assay with CAKI-1, > 100 µM (inactive); with SK-MEL-2 it was 67.5 µM (inactive); in the assay on ACHN, > 100 µM (inactive); in the assay with NCI/ADR-RES it was 76.7 µM (inactive). Also, the GI50 is 74.6 µM (inactive) with MDA-MB-435; 36.9 µM (inactive) with OVCAR-4; 44 µM (inactive) in the assay with MOLT-4; > 100 µM (inactive) with SR; > 100 µM (inactive) with HCC 2998; > 100 µM (inactive) in the assay with UACC-257. The GI50 with COLO 205 is 75 µM (inactive); with SK-MEL-5, 43.1 µM (inactive); in the assay with LOX IMVI, > 100 µM (inactive); with 786-0, 67.3 µM (inactive); in the assay on RPMI-8226, > 100 µM (inactive); in the assay on OVCAR-5 it was > 100 µM (inactive). The GI50 with EKVX was 80.7 µM (inactive).

As for `CN(C)c1ccc2c(c1)oc(=O)c1ccccc12`, the GI50 in the assay with OVCAR-8 was 11.1 µM (inactive); in the assay on MCF7, 5.08 µM (inactive); in the assay with CAKI-1 it was 11.4 µM (inactive); in the assay with SK-MEL-2 it was 6.24 µM (inactive); with ACHN it was 18.5 µM (inactive); in the assay with NCI/ADR-RES, 14.1 µM (inactive). In addition, the GI50 in the assay with MDA-MB-435 is 9.31 µM (inactive); in the assay on OVCAR-4, 12.3 µM (inactive); in the assay on MOLT-4 it was 16.9 µM (inactive); with SR it was 3.2 µM (inactive); in the assay with HCC 2998, 14.9 µM (inactive); with UACC-257 it was 14.4 µM (inactive). Moreover, the GI50 was 12.2 µM (inactive) in the assay on COLO 205; 10.7 µM (inactive) in the assay with SK-MEL-5; 6.14 µM (inactive) in the assay with LOX IMVI; 11.9 µM (inactive) in the assay with 786-0; 3.59 µM (inactive) in the assay on RPMI-8226; 15.5 µM (inactive) in the assay with OVCAR-5. The GI50 in the assay with EKVX was 16.7 µM (inactive).

For the compound `N#Cc1c(-c2ccc([N+](=O)[O-])cc2)cc(-c2ccc(Nc3ccnc4cc(Cl)ccc34)cc2)[nH]c1=O`, the GI50 with OVCAR-8, in the assay with MCF7, with CAKI-1, in the assay on SK-MEL-2, with ACHN and with NCI/ADR-RES was > 100 µM (inactive) in each case. For the same compound, the GI50 in the assay with MDA-MB-435, in the assay with OVCAR-4, with MOLT-4, with SR, in the assay with HCC 2998 and in the assay on UO-31 was > 100 µM (inactive) in each case. The GI50 in the assay with COLO 205, with LOX IMVI, with 786-0, with RPMI-8226, in the assay on OVCAR-5 and in the assay with EKVX was > 100 µM (inactive) in each case.

Consider `COCn1c2ccc(OC(C)=O)cc2c2c(=O)oc(N(C)C)nc21`, for which the GI50 in the assay on OVCAR-8, in the assay with MCF7, in the assay with CAKI-1, with SK-MEL-2, in the assay on ACHN and in the assay with NCI/ADR-RES was > 100 µM (inactive) throughout. For the same compound, the GI50 in the assay with MDA-MB-435, with OVCAR-4, in the assay on MOLT-4, with SR, in the assay on HCC 2998 and in the assay with UACC-257 was > 100 µM (inactive) in each case. For the same compound, the GI50 with COLO 205, in the assay with SK-MEL-5, with LOX IMVI, in the assay with 786-0, in the assay on RPMI-8226 and in the assay on OVCAR-5 was > 100 µM (inactive) each time. The GI50 in the assay on EKVX was > 100 µM (inactive).

On to `COc1cc2c(c(OC)c1OC)-c1ccc(SC)cc1[C@H](OC(=O)c1ccccc1)CC2`, for which the GI50 with OVCAR-8 is 0.158 µM (active); with MCF7, 0.0311 µM (active); in the assay on CAKI-1 it was 0.407 µM (active); in the assay on SK-MEL-2, > 100 µM (inactive); in the assay with ACHN it was 0.189 µM (active); with NCI/ADR-RES it was 0.0946 µM (active). For the same compound, the GI50 was 0.0168 µM (active) in the assay on MDA-MB-435; 0.151 µM (active) in the assay on MOLT-4; 0.0247 µM (active) in the assay on SR; 0.32 µM (active) with HCC 2998; 0.145 µM (active) in the assay on UO-31; > 100 µM (inactive) in the assay with UACC-257. In addition, the GI50 with COLO 205 was 0.188 µM (active); in the assay on SK-MEL-5 it was 0.0697 µM (active); in the assay with LOX IMVI it was 0.0743 µM (active); in the assay with 786-0, 0.106 µM (active); in the assay on RPMI-8226, 0.0424 µM (active); in the assay with OVCAR-5 it was 0.622 µM (active). The GI50 in the assay on EKVX is 0.155 µM (active).

For the compound `Cc1cc2nc(C#N)c(N3CCN(c4ccc([N+](=O)[O-])cc4)CC3)nc2cc1C`, the GI50 was > 56.2 µM (inactive) in the assay on OVCAR-8; > 72.8 µM (inactive) in the assay with MCF7; > 70 µM (inactive) with CAKI-1; > 100 µM (inactive) in the assay with SK-MEL-2; > 71.3 µM (inactive) in the assay on ACHN; > 79.1 µM (inactive) in the assay on NCI/ADR-RES. Also, the GI50 with MDA-MB-435 is > 100 µM (inactive); in the assay with OVCAR-4, 73.6 µM (inactive); in the assay with SR, > 100 µM (inactive); in the assay on HCC 2998 it was > 100 µM (inactive); with UO-31 it was > 93.8 µM (inactive); with UACC-257, > 100 µM (inactive). The GI50 with COLO 205 was > 100 µM (inactive); in the assay on SK-MEL-5, > 100 µM (inactive); in the assay with LOX IMVI, > 100 µM (inactive); with 786-0 it was 52.7 µM (inactive); with RPMI-8226, > 57.3 µM (inactive); in the assay with OVCAR-5 it was > 100 µM (inactive). Further, in the assay with EKVX, the GI50 is > 100 µM (inactive).

Regarding `O=C1N=C(c2ccccc2)O/C1=C\c1ccccc1`, the GI50 in the assay on OVCAR-8, with MCF7, in the assay on CAKI-1, in the assay with SK-MEL-2, with ACHN and in the assay on NCI/ADR-RES was > 100 µM (inactive) throughout. The GI50 in the assay on MDA-MB-435, in the assay on OVCAR-4, in the assay with MOLT-4, in the assay with SR, in the assay with HCC 2998 and in the assay with UO-31 was > 100 µM (inactive) in each case. Besides, the GI50 in the assay on UACC-257, with COLO 205, in the assay with SK-MEL-5, in the assay on LOX IMVI, in the assay on 786-0 and in the assay on RPMI-8226 was > 100 µM (inactive) each time. In addition, the GI50 in the assay with OVCAR-5 is > 100 µM (inactive).

`O=c1oc2ccccc2cc1-c1cn2c(n1)sc1ccccc12`: the GI50 with OVCAR-8 is 83.9 µM (inactive); in the assay on MCF7 it was 4.75 µM (inactive); in the assay with CAKI-1, > 100 µM (inactive); with SK-MEL-2, > 100 µM (inactive); in the assay on ACHN, > 100 µM (inactive); with NCI/ADR-RES, > 100 µM (inactive). Besides, the GI50 with MDA-MB-435 was 29.3 µM (inactive); with MOLT-4, > 100 µM (inactive); with SR, > 100 µM (inactive); with HCC 2998, > 100 µM (inactive); in the assay with UO-31 it was > 100 µM (inactive); with UACC-257 it was > 100 µM (inactive). The GI50 in the assay with COLO 205 was > 100 µM (inactive); with SK-MEL-5 it was > 100 µM (inactive); in the assay on LOX IMVI it was > 100 µM (inactive); with 786-0, > 100 µM (inactive); with RPMI-8226 it was > 100 µM (inactive); with EKVX, 2.33 µM (inactive).

For the compound `COC(OC)[C@@H]1OC[C@H](n2ccc(=O)[nH]c2=O)[C@H]1O`, the GI50 in the assay with MCF7, with CAKI-1, in the assay on SK-MEL-2, in the assay with ACHN, in the assay with NCI/ADR-RES and in the assay with MDA-MB-435 was > 100 µM (inactive) in each case. The GI50 with OVCAR-4, in the assay with MOLT-4, in the assay with SR, in the assay with HCC 2998, in the assay with UO-31 and with UACC-257 was > 100 µM (inactive) throughout. In addition, the GI50 in the assay with COLO 205, in the assay on SK-MEL-5, in the assay with LOX IMVI, with 786-0, with RPMI-8226 and in the assay with OVCAR-5 was > 100 µM (inactive) each time. Further, the GI50 with EKVX is > 100 µM (inactive).

As to `CC1CC[C@]2(C(=O)O)CCC3(C)C(=C2[C@H]1C)C=CC1[C@@]2(C)CC[C@H](O)C(C)(C)C2CC[C@]13C` (stereo partly drawn), the GI50 in the assay with OVCAR-8 was 27.7 µM (inactive); in the assay on MCF7, 30 µM (inactive); with CAKI-1, 22.8 µM (inactive); with SK-MEL-2, 64.9 µM (inactive); with ACHN, 16.4 µM (inactive); in the assay on NCI/ADR-RES it was 36.6 µM (inactive). Also, the GI50 with MDA-MB-435 was 63.1 µM (inactive); with OVCAR-4 it was 30.1 µM (inactive); in the assay on MOLT-4, 23.7 µM (inactive); in the assay on SR, 12.4 µM (inactive); in the assay with HCC 2998, 29.7 µM (inactive); in the assay on UACC-257, 45 µM (inactive). Besides, the GI50 in the assay on COLO 205 is 44.4 µM (inactive); in the assay with SK-MEL-5, 21.4 µM (inactive); with LOX IMVI, 33.1 µM (inactive); with 786-0, 29.9 µM (inactive); in the assay with RPMI-8226 it was 12.2 µM (inactive); in the assay on OVCAR-5 it was 39.5 µM (inactive). Further, in the assay with EKVX, the GI50 was 32.8 µM (inactive).
